Test results published in US20040086471A1, “Compositions for darkening the skin and/or hair” (priority 2002, published 2004).

Columns and labels:
[1] = test system: Type IV pigmented epidermal equivalents (human melanocytes and keratinocytes); tyrosinase activity / melanin deposition; experiment: Pigmentation in pigmented epidermal equivalents (DOPA and F&M staining); format: cell-based; conditions: for Overall Score (change of pigmentation by DOPA and F&M staining) / Score DOPA staining (tyrosinase activity) / Score F&M staining (Pigment deposition): 0.1% (w/v) in PBS, treated three or five days, type IV epidermal equivalents
Method: Copper PCA (Barnet Products Corp., Englewood cliffs, N.J.) was tested for its ability to induce pigmentation in pigmented epidermal equivalents. The pigmented epidermal equivalents contained human normal melanocytes, together with normal, human-derived epidermal keratinocytes, which have been cultured to form a multi-layered, highly differentiated model of the human epidermis. Type IV pigmented epidermal equivalents (consisting of normal human keratinocytes pooled from variety of phototype skins and normal human melanocytes derived from type IV phototype skin) were treated with test compounds for three or five days and samples were harvested on the fourth or sixth day of the study. The harvested equivalents were stained with DOPA (a substrate for tyrosinase) or with Fontana-Mason (F&M) (Sheenan DC, Hrapckak BB, eds: Theory and practice of Histo-Thchnology (St Louis: CV Mosby, 1980) pp 223-277). F&M staining identifies silver nitrate reducing activity, which, in skin, identifies melanin.
The epidermal equivalents used were SkinEthic® reconstructed human epidermis from SkinEthic™ Laboratory (Nice, France). UV irradiation was performed with a UVB FS light source in an exposure chamber, with plate covers removed and Phosphate-buffered saline (PBS, from Gibco-BRL, Gaithersburg, Md.) present in the lower chamber. UVB intensity was measured with a UVX radiometer (UVP Inc., San Gabriel, Ca.). Equivalents were treated with 0.1-0.12 J/cm2. […] The copper PCA and tyrosine were dissolved in PBS.
On the fourth or sixth day of the study, the equivalents were fixed, sectioned and F&M stained, or they were DOPA stained as whole without sectioning, using standard techniques. At least three sections per equivalent, three equivalents per experiment were processed. Each experiment was repeated three times. DOPA-stained epidermal equivalents were evaluated for the change in tyrosinase activity. F&M-stained histological sections were evaluated for the change in pigment deposition. Due to the low content of melanin within the type IV epidermal equivalent, it was not possible to quantify the level of pigment within melanocytes in F&M stained sections by image analysis. Therefore, the pigment change was evaluated using the scale defined below in Table 1.
Table 2 represents the overall score in change of pigmentation, as evaluated by DOPA and F&M staining, as set forth above, when equivalents were exposed to Copper PCA (0.1% (w/v)) and/or tyrosine (0.1% (w/v)) or UVB irradiation (0.10J/cm^2).

[2] = test system: skin of Yucatan microswine; experiment: Pigment deposition in swine skin in vivo (F&M histology of biopsies); conditions: for pigment deposition in swine skin (in words): topical, in vivo, histological analysis
Excerpt: Dark skinned Yucatan microswine (Charles River, Portland, Me.) were housed in appropriately sized cages in an environmentally controlled room with a 12-hour light—12-hour dark photoperiod and supplied with food and water ad libi tum. Twenty μl of test materials were applied topically, twice a day, five days/week, for eight or nine weeks, on the dorsum of the swine. Treatments of individual swine were always arranged in a head to tail order on one side, and in a tail to head order on the other side of the animal. Biopsies were taken using standard techniques.
Swine were treated with either 0.5% w(w/v) of the copper PCA and/or tyrosine or ultraviolet-B radiation (as a positive control). The copper PCA and tyrosine were dissolved in ethanol: propylene glycol 70:30 (v/v). A […] erythema dose (MED) of UVB was determined by placing a plastic template with 1×1 inch^2 cutouts on the dorsum of the swine. Using a UVB lamp (Model UVM-57, 302 nm lamp, UVP Inc., Upland, Calif.) placed on the template, sites were exposed to UVB with increasing time points, every other day for five days. Unexposed sites were covered with the same material as the template. One MED was established as the dose that produces the least amount of visible erythema. Swine were exposed to one MED, once per day, on three alternate days (Mon, Wed, Fri).
Following eight weeks of treatment, skin biopsies were taken using standard methods, for pigment deposition analysis. Sections from the skin biopsies were stained with Hematoxylin and Eosin (H&E), or with Fontana-Mason (F&M), using standard procedures (Sheenan DC, Hrapckak BB, eds., Theory and Practice of Histo-Technology (The C. V. Mosby Co., St. Louis (1980) pp. 223-277). At least three sections per biopsy were processed. Each experiment was repeated at least two times.
Table 4 represents the average value of all sites of responsive swine treated with each test material. The scale for evaluation is defined in Table 3.

Compound | Overall Score (change of pigmentation by DOPA and F&M staining) [1] | Score DOPA staining (tyrosinase activity) [1] | Score F&M staining (Pigment deposition) [1] | tyrosinase activity in human pigmented epidermal equivalents (in words) ([1]; in vitro) | Score (pigment deposition, capped epidermal cells) ([2]; 0.5% (w/v) topical, twice a day, five days/week, eight weeks, average of all sites of responsive swine) | pigment deposition in swine skin (in words) [2] | pigment deposition in swine skin (in words) ([2]; listed as copper PCA)
O=C1CC[C@@H](C(=O)[O-])N1.O=C1CC[C@@H](C(=O)[O-])N1.[Cu+2] [Copper PCA] | 1-2 | 1-2 | 1-2 | significantly increases | 2-3 | enhanced pigment deposition | significantly increases
N[C@@H](Cc1ccc(O)cc1)C(=O)O [Tyrosine, tyrosine] | 0-2 | 1-2 | 0-1 |  |  |  | 
